Data taken from paper PMC9541495, “Understanding the interaction of 14‐3‐3 proteins with hDMX and hDM2: a structural and biophysical study” (The Febs Journal, 2022).
Where a SMILES comes first, the peptide text is derived from it. [ ]: non-standard residue; d: D form. pS = N[C@@H](COP(=O)(O)O)C(=O)O

Legend:
[1] = molecular target: T1, 14‐3‐3η (Homo sapiens, UniProt Q04917); experiment: Fluorescence anisotropy direct titration, 14‐3‐3η; format: binding
T1 construct: full‐length proteins were concentrated by centrifugation, rebuffered in HEPES buffer; made in house; host or cells: E. coli BL21(DE3)
T1 sequence (Q04917 1-246): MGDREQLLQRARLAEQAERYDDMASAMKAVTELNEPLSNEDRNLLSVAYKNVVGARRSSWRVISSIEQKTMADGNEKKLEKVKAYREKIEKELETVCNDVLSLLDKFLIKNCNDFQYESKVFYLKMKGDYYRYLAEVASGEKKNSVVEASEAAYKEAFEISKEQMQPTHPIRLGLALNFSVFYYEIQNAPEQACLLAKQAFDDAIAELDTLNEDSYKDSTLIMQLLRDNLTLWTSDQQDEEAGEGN
Description: All assays were performed in 384 well plates (each experiment was run in triplicates) and data were collected by Perkin Elmer EnVision 2013 plate reader with excitation at 480 nm (30 nm bandwidth), polarised dichroic mirror at 505 nm and emission at 535 nm (40 nm bandwidth, S and P polarised). Experiments were carried out in HBS buffer (10 mM HEPES, 150 mM NaCl, pH 7.4) + 0.1% Tween 20 + 0.1% BSA). A ½ fold dilution series was performed in the titration, with plates read after 30 min, 4 h and 20–24 h. […] Collected data were processed in Microsoft Excel using the equations below. Total intensity I and anisotropy r were calculated using Equations 1 and 2 for each well. Average anisotropy was plotted against protein concentration using OriginPro and a logistic curve was fitted to give r min and r max. Using Equation 3 anisotropy was converted into fraction bound and multiplied by peptide concentration to be fitted in Origin using Equation 5 to obtain K d values.

[2] = molecular target: T1, 14‐3‐3η; experiment: Isothermal titration calorimetry, peptide into 14‐3‐3η; format: binding; conditions: 25 °C, HEPES pH 7.5
Description: (§1) […]
Moreover, such experiments provide thermodynamic data and as a label‐free method require no immobilization/functionalization of any of the binding partners. Here data were obtained by titration of the peptide into 14‐3‐3η protein (Fig. 2D,E and Fig. S7).
Isothermal titration calorimetry experiments were carried out on a MicroCal iTC200 in HBS buffer at 25°C (25 mM HEPES pH 7.5, 100 mM NaCl, 10 mM MgCl2, 0.5 mM TCEP). Peptides ([…]) in the syringe were titrated into a cell containing 14‐3‐3η ([…]). Data were fitted using MICROCAL software (Northampton, MA, USA) to give binding constant (K d), enthalpy (ΔH), entropy (ΔS) and binding stoichiometry (n).

[3] = molecular target: T1, 14‐3‐3η; experiment: Surface plasmon resonance on immobilized 14‐3‐3η; format: binding; conditions: multicycle kinetic format, Langmuir model, 25 °C
Description: as §1
Experiments were performed at 25 °C using a Biacore T200 instrument (GE Healthcare, Buckinghamshire, UK). For immobilization, the running buffer was HBS buffer (HEPES, NaCl, Tween‐20, pH 7.4). 14‐3‐3η was immobilized on an NTA sensor chip (Series S Sensor Chip GE Healthcare) using NTA reagent and Biacore Amine Coupling Kit. Briefly, 14‐3‐3η was diluted to 0.2 mg·mL^−1 and 200 µL was injected over a chip surface that had been activated with an injection of Ni^2+, followed by 140 µL of 1 : 1 NHS/EDC. A 30 µL of 0.5 M ethanolamine was then injected to cap the excess free amine groups. […] Then, 20 µL of these solutions were injected over a 14‐3‐3η immobilized surface for 1 min at the […] flow rate, followed by a 4 min regeneration period with HBS buffer. Kinetics and the binding affinity were calculated using the BIACORE evaluation software (Buckinghamshire, UK). Standard dose–response curves were fitted by plotting RUs against the peptide concentration.

[4] = molecular target: T1, 14‐3‐3η; experiment: Analytical ultracentrifugation (sedimentation velocity) of 14‐3‐3η with peptide; conditions: AUC‐SV; 14 μM 14‐3‐3η, protein : peptide 1 : 1 and 1 : 0.5; 10 mM HEPES, 150 mM NaCl, pH 7.4; 25 °C
Excerpt: The 1 : 1 stoichiometry between the doubly phosphorylated peptides and 14‐3‐3 contrasts with previously reported work, although it may be that the length and/or accessible conformation of the hDMX and hDM2 peptides are incompatible with the simultaneous engagement of both 14‐3‐3 protomers in the dimeric structure. To further explore this behaviour and understand the basis of cooperativity and affinity enhancement we performed additional experiments. To exclude the possible formation of higher‐order oligomers (e.g. 14‐3‐3 tetramers held together by two peptides bridging two dimers), an analytical ultracentrifugation experiment was performed. The 14‐3‐3η (at the concentration of 14 μM, approximately corresponding to the second binding events observed in FA, Fig. 2C) and hDMX335‐373 ^pSer342/pSer367 peptide in two different concentration ratios (1 : 1 and 1 : 0.5, protein vs. peptide) were analysed. […] The second binding event observed only in fluorescence anisotropy experiments, may represent a further non‐specific binding event or an interaction linked to 14‐3‐3 dimerization and will be investigated in future work.
AUC‐SV experiments were performed using a Beckman Coulter Optima XL‐I ultracentrifuge. […] The diffusion‐deconvoluted sedimentation coefficient distributions c(s) were calculated using the SEDFIT program (Bethesda, MD, USA). […]

[5] = tested on: all isoforms of 14‐3‐3; experiment: Fluorescence anisotropy assays with all isoforms of 14‐3‐3 (result in words); format: binding, human; conditions: FAM tracer peptide 50 nM, 0.1 nM - 300 µM protein, 10 mM HEPES, 150 mM NaCl, 0.1% Tween 20, 0.1% BSA pH 7.4; n = 3
Excerpt: 14‐3‐3 proteins were titrated against a constant concentration of the tracer resulting in an increase of anisotropy upon engaging 14‐3‐3 proteins (Fig. 2A–C for 14‐3‐3 binding hDMX sequences and Figs S4–S6, for 14‐3‐3 binding hDM2 sequences, non‐binding sequence, and unphosphorylated controls). A noteworthy feature of the data is that different maximum anisotropy levels were observed between hDMX or hDM2 peptides and 14‐3‐3 isoforms, indicating different diffusion properties of the fluorophore when bound to the different 14‐3‐3 isoforms. […]
All assays were performed in 384 well plates (each experiment was run in triplicates) and data were collected by Perkin Elmer EnVision […] plate reader with excitation at 480 nm (30 nm bandwidth), polarised dichroic mirror at 505 nm and emission at 535 nm (40 nm bandwidth, S and P polarised). […] A ½ fold dilution series was performed in the titration, with plates read after 30 min, 4 h and 20–24 h. […] Total intensity I and anisotropy r were calculated using Equations 1 and 2 for each well. […]
Figure S4. Fluorescence anisotropy assays for the hDM2 peptides. […]
Figure S5. Fluorescence anisotropy assays for the hDMX144-158pThr151 peptide with all isoforms of 14-3-3. […]

Molecule | fold higher affinity Kd1 of doubly phosphorylated peptide compared to singly phosphorylated peptide ([1]; FA, 14‐3‐3η, compared to hDM2_160‐171 ^pSer166 (hDM2 peptide) or hDMX361‐374 ^pSer367 (hDMX peptide)) [fold] | ∆G (ITC), 14‐3‐3η ([2]; acetyl labelled peptides) [kcal/mol] | n (binding stoichiometry, ITC) ([2]; acetyl peptides, 14‐3‐3η) | ‐T∆S (ITC) ([2]; acetyl peptides, 14‐3‐3η) [kcal/mol] | ∆H (ITC) ([2]; acetyl peptides, 14‐3‐3η) [kcal/mol] | koff [3] [s⁻¹] | kon [3] [M⁻¹ s⁻¹] | sedimentation coefficient of 14‐3‐3η with peptide vs protein alone (in words) [4] | Kd ([1]; FA direct titration, FAM‐Ahx tracer peptide 50 nM, pH 7.4, 1:1 fit, n = 3, read-out: K d, 14‐3‐3η) [nM] | FA response / affinity with 14‐3‐3 proteins, all isoforms (in words) [5]
CC[C@H](C)[C@H](NC(=O)[C@H](CC(=O)O)NC(=O)[C@H](CO)NC(=O)[C@@H](NC(=O)[C@H](COP(=O)(O)O)NC(=O)[C@H](CC(C)C)NC(=O)[C@H](CO)NC(=O)[C@H](Cc1c[nH]cn1)NC(=O)[C@@H](NC(=O)[C@H](CC(C)C)NC(=O)[C@H](CCCCN)NC(=O)[C@H](CO)NC(C)=O)[C@@H](C)O)[C@@H](C)O)C(=O)N[C@H](C(=O)N[C@@H](C)C(=O)N[C@H](C(=O)N1CCC[C@H]1C(=O)N[C@@H](CCC(=O)O)C(=O)N[C@@H](CCCCN)C(=O)N[C@@H](CCC(=O)O)C(=O)N[C@@H](CC(N)=O)C(=O)N[C@@H](CCC(=O)O)C(=O)NCC(=O)N[C@@H](CC(N)=O)C(=O)N[C@@H](CC(=O)O)C(=O)N[C@H](C(=O)N1CCC[C@H]1C(=O)N[C@@H](CC(=O)O)C(=O)N[C@@H](CS)C(=O)N[C@@H](CCCNC(=N)N)C(=O)N[C@@H](CCCNC(=N)N)C(=O)N[C@H](C(=O)N[C@H](C(=O)N[C@@H](COP(=O)(O)O)C(=O)N[C@@H](C)C(=O)N1CCC[C@H]1C(=O)N[C@H](C(=O)N[C@H](C(=O)N[C@@H](CCCNC(=N)N)C(=O)N1CCC[C@H]1C(N)=O)C(C)C)C(C)C)[C@@H](C)CC)[C@@H](C)O)C(C)C)[C@@H](C)CC)[C@@H](C)O [hDMX335‐373 ^pSer342/pSer367] | 3 | -10.7 | 0.94 | -5.4 | -5.28 ± 0.17 | 0.0048 | 1.51e+06 | remained unchanged |  | 
CC[C@H](C)[C@H](NC(=O)[C@@H](NC(=O)[C@H](CCCNC(=N)N)NC(=O)[C@H](CCCNC(=N)N)NC(=O)[C@H](CS)NC(=O)[C@H](CC(=O)O)NC(C)=O)[C@@H](C)O)C(=O)N[C@@H](COP(=O)(O)O)C(=O)N[C@@H](C)C(=O)N1CCC[C@H]1C(=O)N[C@H](C(=O)N[C@H](C(=O)N[C@@H](CCCNC(=N)N)C(=O)N1CCC[C@H]1C(=O)N[C@@H](CCCCN)C(N)=O)C(C)C)C(C)C [hDMX361‐374 ^pSer367] (Ac-DCRRTI[pS]APVVRPK-NH2) |  |  |  |  |  | 0.121 | 389000 |  | 98.8 ± 4.6 | 
X‐STSRKRT pT EDDIPTL‐NH2 [hDMX144‐158 ^pThr151, hDMX‐derived phosphopeptide, N‐terminal acetyl (ITC, SPR, crystallography) or FAM‐Ahx (FA tracer), C‐terminal amide] |  |  |  |  |  |  |  |  |  | no response
